# In article PMC3673949, “Small Molecule R1498 as a Well-Tolerated and Orally Active Kinase Inhibitor for Hepatocellular Carcinoma and Gastric Cancer Treatment via Targeting Angiogenesis and Mitosis Pathways” (PLoS ONE, 2013):
# pIC50: −log10 of the molar value.
# Experiments:
# [1] = test system: HUVEC; experiment: HUVEC tube formation assay; type: cell-based, human
# [2] = test system: phospho-histone H3 (S10); experiment: Immunofluorescence / western blot of Aurora B activity marker in SGC-7901; type: cell-based, human
# Description: Cell lysate was prepared in RIPA buffer and quantified by the bicinchoninic acid (BCA) method (Pierce, Rockford, IL). Thirty micrograms of protein per sample was loaded onto a 4∼12% NuPAGE® Novex SDS gel (Invitrogen). The protein was transferred by an iBlot® dry blotting device (Invitrogen) onto nitrocellulose membranes. After blocking nonspecific binding with TBS/Tween20 (0.1%) (TBS/T) containing 5% non-fat milk for 1 h at room temperature, the membrane was incubated in phospho-Aurora A (Thr288) (C39D8) rabbit monoclonal antibody (Cell Signaling Technology, CST #3079, Beverly, MA) or phospho-Histone H3 (Ser10) rabbit polyclonal antibody (CST#9701) (1∶1000 in TBS/T containing 3% bovine serum albumin (BSA), and gently shaken at 4°C overnight. The membrane was washed with TBS/T three times to remove the unbound antibody, then incubated with the secondary antibody (HRP-conjugated goat anti-mouse IgG or goat anti-rabbit IgG, 1∶10000, KangChen Biotech, Shanghai, China) for 1 h at room temperature, respectively. Protein bands were visualized with an enhanced chemiluminescence (ECL) kit (Pierce, Rockford, IL). […]
# [3] = Dose range finding and toxicokinetic study; type: in vivo
# Description: Dose range finding and toxicokinetic study was carried out in rats and Beagle dogs based on in vitro metabolites identification. Wistar rats (male: 3, female 3 in each group, from Vital River, Beijing, China) were fasted overnight, and then received test articles as 0, 6.25, 50 and 100 mg/kg twice a day per oral gavage for a 14-day continuous regimen. Motility observation was applied on a daily bases to find the maximum tolerant dose for the animals. The animals were sacrificed on d14, and the following toxicology observation were carried out including body weight changes, clinical observation, gross necropsy, hematology chemistry and histopathology. On day 1 and day 14, blood samples were obtained via jugular vein puncture from all animals (if alive, using EDTA-K2 tubes). Samples were mixed gently and placed on crushed wet-ice until centrifugation, which was carried out immediately. The samples were centrifuged for approximately 15 minutes at 4°C 2,700 rpm. The resultant plasma was separated, transferred to uniquely labeled clear polypropylene tubes and frozen immediately over solid carbon dioxide (dry ice) until transferred to approximately −80°C. Each animal was bled at the following time points: approximately 5 min, 15 min, 30 min, 1, 2, 4, 8 and 24 hours post first dose on the specific day. The drug concentrations in the plasma were determined by LC-MS/MS. The pharmacokinetic analysis was performed using WinNonlin software (Version 5.2, Pharsight Corporation, CA, USA), and the pharmacokinetic parameters were calculated using a Non-compartmental model method.
# Beagle dogs (approximately 8–10 months, from Beijing Marshall Biotechnology Co. Ltd., Beijing, China) were subjected to the study protocol as described above. Each group has one male and one female dog, the dosages of test article were: 0, 1, 7.5 and 15 mg/kg, respectively.
# [4] = test system: GC and HCC xenografts; experiment: Panel of GC and HCC xenografts, comparison with sorafenib; type: in vivo, BALB/C nu/nu nude mice
# Description: (§1) Tumor cells were inoculated into the right flank of BALB/C nu/nu female nude mice (5∼6 weeks, 16∼18 g, obtained from Sino-British SIPPR/BK Lab. Animal Ltd, Shanghai, China) at optimal density based on our in-house validation study. After the tumor was established and reached 100∼150 mm^3, the mice were randomized into ten mice per group and received treatment according to the schedule. The tumor growth was recorded three times a week with the measurement of length (L) and width (W) by caliper, and calculated as tumor volume (TV, mm^3) = 0.5*L*W*W (mm). […] The tumor regression of individual mouse was defined - the tumor volume at the end was less than the tumor volume when treatment was initiated.
# [5] = Single dose pharmacokinetic (SDPK) study; type: in vivo; conditions: Nude Mouse
# Description: Before the pharmacokinetic study, animals were randomly assigned to the sampling groups (3 animals per time point). Ten additional mice were used to collected plasma blank for calibration curves. The mice were fasted overnight before oral administration. […] The plasma samples and the dose formulation were stored at −20°C until bioanalysis. The data acquisition and control system were created using Analyst 1.4 software from ABI Inc. The concentrations in plasma below the limit of quantitation (LOQ = 1 ng/mL) were designated as zero. […] For rat, dog and monkey SDPK, the blood samples were collected from jugular vein puncture.
# [6] = test system: HCCLM3 xenograft; experiment: Xenograft efficacy study; type: in vivo, BALB/C nu/nu nude mice; conditions: HCCLM3, 12.5 mg/kg twice a day per oral gavage
# [7] = test system: HUVEC (VEGF 165 stimulated); experiment: VEGF-induced HUVEC proliferation assay; type: cell-based; conditions: Homo sapiens, 0.5% FBS with VEGF 165, 72 h
# Description: Each cell line was seeded in a 96-well tissue culture plate (Corning, NY) at a predetermined density in 180 µL complete medium, attached overnight and treated by compound for another 72 h. Then the medium was discarded and replaced with 10% CCK-8 (Dojindo, Kumamoto, Japan) in complete medium, then incubated the plates for another 2 h. The OD450 was measured with SpectraMAX 190 spectrophotometer (MDS, Sunnyvale, CA). A background absorbance of ODblank was subtracted from all wells.
# In VEGF-induced HUVEC proliferation assay, the HUVECs suspended in 170 µL EGM-2 with 0.5% FBS were seeded and incubated overnight. After the cells attached, 10 µL 1 µg/ml recombinant human VEGF 165 (R&D systems, Minneapolis, MN) was added to each well together with 20 µl compound solutions prepared in EGM-2 with 0.5% FBS. The CCK-8 assay as above was used for determination of cell viability.
# [8] = test system: tubulin; experiment: In vitro tubulin polymerization assay; type: biochemical; conditions: 40 µM, OD340
# Description: In vitro tubulin polymerization assay was performed as described previously.
# [9] = test system: BGC-823 xenograft; experiment: Xenograft efficacy study; type: in vivo, BALB/C nu/nu nude mice
# Description: as §1
compound,measurement,setting,value
COc1ccc2c(c1)C(c1ccccc1Cl)=Nc1c(n[nH]c1C)N2 [R1498],HUVEC proliferation under tube formation treatment condition,"[1]; 8 hr exposure, data not shown",didn’t affect HUVEC proliferation
same,tube formation,"[1]; HUVEC on Matrigel, 3 µM, 8 h, vs DMSO",formed fewer intact tube meshes
same,phospho-histone H3 (S10) (immunofluorescence),"[2]; SGC-7901, 5 µM, 24 h",decreased sharply
same,phosphorylation of phospho-histone H3 (S10) (western blot),"[2]; SGC-7901 synchronized with nocodazole, various concentrations, acute treatment",decreased in a concentration-dependent manner
same,MTD at 2 week,"[3]; both sexes, dog, in vivo, po, beagle dogs (F/M), 2-week DRF, bid dosing",> 15 mg/kg
same,AUC(0-t),"[3]; both sexes, dog, plasma, po, 15 mg/kg, beagle dogs, at highest dose, read-out: MTD AUC0-24",> 111 µg·h/mL
same,Histopathology results,"[3]; dogs, 0, 1, 7.5, 15 mg/kg, 2-week DRF",no significant findings at all doses
same,dose at which body weight loss began,[3]; female dog,7.5 mg/kg
same,tumor growth inhibition,[4]; all test models (GC and HCC xenografts),> 80%
same,TGI% over TGI% of sorafenib,"[4]; gastric cancer xenografts, same schedule",2–12%
same,TGI% more than TGI% of sorafenib,"[4]; hepatocarcinoma xenografts, same schedule",10–19%
same,Oral BA,"[5]; 10-100 mg/kg, micronized API suspension",44-92 (10-100 mg/kg) %
same,clearance,"[5]; male, plasma, iv, 2 mg/kg, single dose",6.3 mL/min/kg
same,Vd,"[5]; male, plasma, iv, 2 mg/kg, single dose, read-out: Vdss",2 L/kg
same,half-life,"[5]; male, plasma, iv 2 mg/kg",240 min
same,Final TGI%,[6]; day of study termination,81%
same,Body weight changes%,[6]; before vs after treatment,15.3%
same,Tumor Regression,[6]; mice with regression/group,0/10
same,pIC50,[7],7.05
same,effect on microtubule polymerization,[8],neither stabilized nor destabilized microtubule polymerization
same,Final TGI%,"[9]; BGC-823, 25 mg/kg twice a day per oral gavage, day of study termination (Table S2)",94%
same,Body weight changes%,"[9]; BGC-823, 25 mg/kg twice a day per oral gavage, before vs after treatment",2%
same,Tumor Regression,"[9]; BGC-823, 25 mg/kg twice a day per oral gavage, mice with regression/group",0/10
same,Final TGI%,"[9]; BGC-823, 6.25 mpk, bid, PO",78%
same,Final TGI%,"[9]; BGC-823, 12.5 mpk, bid, PO",88%
same,Final TGI%,"[9]; BGC-823, 25 mpk, bid, PO (Table S3)",94%
